The assay has as its target T1, Human Recombinant ROCK-II Enzyme (ROKα/ROCK-II, aa 11-552) (Homo sapiens, UniProt O75116).
T1 construct: (ROKα/ROCK-II, (aa 11-552), human active); purchased Upstate Biotechnology Co., Lake Placid, N.Y. 14-451
The assay is described as follows: ROCK-II inhibition, fluorescence polarization assay (IMAP ROCK II kit). It counts as biochemical. The following applies: substrate 200 nM, ATP 10 μM, 60 min at 23° C., read-out: Enzyme Inhibition Constants (IC50) against Human Recombinant ROCK-II Enzyme. The procedure: The ability of certain compounds of Formula (I) to inhibit rho kinase was evaluated by means of in vitro assays. Human recombinant Rho kinase (ROKα/ROCK-II, (aa 11-552), human active, catalog #14-451, Upstate Biotechnology Co., Lake Placid, N.Y.), MgCl2/ATP cocktail, and enzyme substrate (Upstate) are used.
The fluorescence polarization assays are performed using a Biomek 2000 Robotic Workstation (Beckman Instruments, Palo Alto, Calif.) in a 96-well plate format. The assays are performed utilizing the IMAP ROCK II kit (Molecular Devices, Sunnyvale, Calif.) as follows. Substrate and ATP concentrations used are 200 nM and 10 μM, respectively, while the enzyme concentration is 3.96×10^−3 units per well. The substrate, enzyme, and ATP dilutions are made with the reaction buffer provided by the vendor. Test compounds are diluted in 10:10 DMSO-ethanol (vol/vol). For the actual assays, the various components are added into black, clear bottom, 96-well plates (Costar, Corning, N.Y.) in a final volume of 20 μl per well. After the enzyme reaction (60 min at 23° C.), 60 μl of the binding solution (IMAP kit, provided by vendor) is added per well and incubated for an additional 30 minutes in the dark at 23° C. Fluorescence polarization of the reaction mixtures is then measured on the Analyst™ HT instrument (Molecular Devices, Sunnyvale, Calif.).
The data generated are then analyzed using a non-linear, iterative, sigmoidal-fit computer program purchased from IDBS (Emeryville, Calif.) and as previously described (Sharif et al., J. Pharmacol. Exp. Ther. 286:1094-1102, 1998; Sharif et al., J. Pharmacol. Expt. Ther. 293:321-328, 2000; Sharif et al., J. Ocular Pharmacol. Ther. 18:141-162, 2002a; Sharif et al., J. Pharmac. Pharmacol. 54:539-547, 2002b) to generate the inhibition constants for the test compounds.

Each structure is given as a SMILES string. Counter-ions that a name gives are not always drawn.

By IC50 is commonly meant the midpoint of a concentration-inhibition curve.

T1 sequence (O75116 11-552): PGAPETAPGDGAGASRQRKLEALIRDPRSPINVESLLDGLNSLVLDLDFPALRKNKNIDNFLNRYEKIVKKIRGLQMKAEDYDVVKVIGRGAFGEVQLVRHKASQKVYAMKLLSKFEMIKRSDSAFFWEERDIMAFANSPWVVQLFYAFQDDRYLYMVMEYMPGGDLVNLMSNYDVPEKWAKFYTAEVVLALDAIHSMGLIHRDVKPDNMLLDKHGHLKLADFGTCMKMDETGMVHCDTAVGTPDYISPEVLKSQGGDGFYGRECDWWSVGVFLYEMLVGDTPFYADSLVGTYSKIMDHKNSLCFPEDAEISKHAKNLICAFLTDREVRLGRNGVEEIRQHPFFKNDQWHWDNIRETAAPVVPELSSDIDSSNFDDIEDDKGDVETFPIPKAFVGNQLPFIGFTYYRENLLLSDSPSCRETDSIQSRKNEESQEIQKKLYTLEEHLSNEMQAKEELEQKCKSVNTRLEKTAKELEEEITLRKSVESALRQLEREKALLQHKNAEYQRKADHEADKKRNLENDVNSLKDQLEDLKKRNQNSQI

Regarding `CN1CCCN(c2nc(-c3ccc4[nH]ncc4c3)cnc2N)CC1` [Example 7, 5-(1H-Indazol-5-yl)-3-(4-methyl-1,4-diazepan-1-yl)pyrazin-2-amine dihydrochloride], the IC50 came to 0.95 nM.
As for `Nc1ncc(-c2ccncc2)nc1N1CCC(O)CC1` [Example 12, 1-(3-Amino-6-(pyridin-4-yl)pyrazin-2-yl)piperidin-4-ol], the IC50 worked out at 6.9 nM.
Regarding `CNc1ncc(-c2ccncc2)nc1N1CCCN(C)CC1` [Example 25, N-Methyl-3-(4-methyl-1,4-diazepan-1-yl)-5-(pyridin-4-yl)pyrazin-2-amine hydrochloride], the IC50 is 2.4 nM.
Regarding `CN1CCC(N(C)c2nc(-c3ccncc3)cnc2N)CC1` [Example 18, N,N-Methyl-N,N-(1-methylpiperidin-4-yl)-6-(pyridin-4-yl)pyrazine-2,3-diamine], the IC50 came out at 9.6 nM.
Turning to `c1cc(-c2cnc(N3CCCCC3)c(NC3CCCNC3)n2)ccn1` (centres unmarked) [Example 49, 3-(Piperidin-1-yl)-N-(piperidin-3-yl)-6-(pyridin-4-yl)pyrazin-2-amine], the IC50 turned out to be 0.3 nM.
The value for `CN1CCCN(c2nc(-c3ccnc4[nH]ccc34)cnc2N)CC1` [Example 4, 3-(4-Methyl-1,4-diazepan-1-yl)-5-(1H-pyrrolo[2,3-b]pyridin-4-yl)pyrazin-2-amine] was 0.53 nM; that for `CN1CCCN(c2nc(-c3ccnc(N)c3)cnc2N)CC1` [Example 8, 5-(2-Aminopyridin-4-yl)-3-(4-methyl-1,4-diazepan-1-yl)pyrazin-2-amine trihydrochloride] was 53 nM.
As for `CN1CCCC(Nc2nc(-c3ccncc3)cnc2N)C1` (centres unmarked) [Example 15, N,N-(1-Methylpiperidin-3-yl)-6-(pyridin-4-yl)pyrazine-2,3-diamine], the IC50 is 5.5 nM.
Regarding `c1cc(-c2cnc(N3CCCC3)c(OC3CCNCC3)n2)c2cc[nH]c2n1` [Example 47, 4-(6-(Piperidin-4-yloxy)-5-(pyrrolidin-1-yl)pyrazin-2-yl)-1H-pyrrolo[2,3-b]pyridine], the IC50 is 0.054 nM.
Regarding `CN(C)c1ncc(-c2ccncc2)nc1N1CCN(CCO)CC1` [Example 30, 2-(4-(3-(Dimethylamino)-6-(pyridin-4-yl)pyrazin-2-yl)piperazin-1-yl)ethanol hydrochloride], the IC50 was 0.3 nM.
`OCCN1CCN(c2nc(-c3ccncc3)cnc2N2CCCC2)CC1` [Example 44]: the IC50 amounted to 0.078 nM.
Take `CN1CCCN(c2nc(-c3ccncc3)cnc2N(C)C)CC1` [Example 32, N,N-dimethyl-3-(4-methyl-1,4-diazepan-1-yl)-5-(pyridin-4-yl)pyrazin-2-amine hydrochloride]: the IC50 is 1.7 nM.
Take `CN(C)c1ncc(-c2ccncc2)nc1OC1CCNCC1` [Example 35, N,N-Dimethyl-3-(piperidin-4-yloxy)-5-(pyridin-4-yl)pyrazin-2-amine hydrochloride]: the IC50 was determined as 0.94 nM.
On to `CN(C)CCCOc1nc(-c2ccncc2)cnc1N(C)C` [Example 36, 3-(3-(Dimethylamino)propoxy)-N,N-dimethyl-5-(pyridin-4-yl)pyrazin-2-amine hydrochloride], for which the IC50 turned out to be 11 nM.
Turning to `Nc1ncc(-c2ccncc2)nc1N(CCO)CCO` [Example 9, 2,2′-(3-Amino-6-(pyridin-4-yl)pyrazin-2-ylazanediyl)diethanol], the IC50 is 22 nM.
As for `CN1CCCN(c2nc(-c3ccnc4[nH]ncc34)cnc2N(C)C)CC1` [Example 33, N,N-Dimethyl-3-(4-methyl-1,4-diazepan-1-yl)-5-(1H-pyrazolo[3,4-b]pyridin-4-yl)pyrazin-2-amine dihydrochloride], the IC50 turned out to be 0.54 nM.
Take `Nc1ncc(-c2ccncc2)nc1NC1CCNCC1` [Example 16, N,N-2-(Piperidin-4-yl)-6-(pyridin-4-yl)pyrazine-2,3-diamine]: the IC50 was determined as 0.82 nM.
In the case of `Nc1ncc(-c2ccncc2)nc1OC1CCCNC1` (centres unmarked) [Example 23, 3-(Piperidin-3-yloxy)-5-(pyridin-4-yl)pyrazin-2-amine], the IC50 amounted to 0.68 nM.
Turning to `Cc1n[nH]c2ccc(-c3cnc(N4CCCC4)c(N4CCCNCC4)n3)cc12` [Example 43, 5-(6-(1,4-Diazepan-1-yl)-5-(pyrrolidin-1-yl)pyrazin-2-yl)-3-methyl-1H-indazole hydrochloride], the IC50 came out at 0.11 nM.
Then `COCCNc1ncc(-c2ccncc2)nc1N1CCCN(C)CC1` [Example 27, N-(2-Methoxyethyl)-3-(4-methyl-1,4-diazepan-1-yl)-5-(pyridin-4-yl)pyrazin-2-amine hydrochloride], with 5.2 nM.
Then `CN1CCCN(c2nc(-c3ccncc3)cnc2N)CC1` [Example 1, 3-(4-Methyl-1,4-diazepan-1-yl)-5-(pyridin-4-yl)pyrazin-2-amine], with 3 nM; and `CN1CCCN(c2nc(-c3ccnc4[nH]ccc34)cnc2N2CCCC2)CC1` [Example 39, 4-(6-(4-Methyl-1,4-diazepan-1-yl)-5-(pyrrolidin-1-yl)pyrazin-2-yl)-1H-pyrrolo[2,3-b]pyridine dihydrochloride], with 0.16 nM.
In the case of `CN(C)c1ncc(-c2ccncc2)nc1NC1CCCNC1` (centres unmarked) [Example 34, N,N-(Piperidin-3-yl)-6-(pyridin-4-yl)pyrazine-2,3-diamine], the IC50 was determined as 3.1 nM.
With `CN1CCCN(c2nc(-c3ccncc3)cnc2N2CCCCCC2)CC1` [Example 50, 1-(3-(Azepan-1-yl)-6-(pyridin-4-yl)pyrazin-2-yl)-4-methyl-1,4-diazepane hydrochloride], the IC50 is 0.02 nM.
The value for `CN1CCC(Nc2nc(-c3ccncc3)cnc2N)CC1` [Example 14, N,N-(1-Methylpiperidin-4-yl)-6-(pyridin-4-yl)pyrazine-2,3-diamine] was 3.5 nM; that for `c1cc(-c2cnc(N3CCCCCC3)c(NC3CCCNC3)n2)ccn1` (centres unmarked) [Example 51, 3-(Azepan-1-yl)-N-(piperidin-3-yl)-6-(pyridin-4-yl)pyrazin-2-amine dihydrochloride] was 0.19 nM; that for `CN(C)c1ncc(-c2ccnc3[nH]ccc23)nc1N1CCN(CCO)CC1` [Example 31, 2-(4-(3-(Dimethylamino)-6-(1H-pyrrolo[2,3-b]pyridin-4-yl)pyrazin-2-yl)piperazin-1-yl)ethanol] was 0.053 nM.
Then `c1cc2[nH]ncc2cc1-c1cnc(N2CCCC2)c(N2CCCNCC2)n1` [Example 42, 5-(6-(1,4-Diazepan-1-yl)-5-(pyrrolidin-1-yl)pyrazin-2-yl)-1H-indazole hydrochloride], with 0.033 nM; and `Nc1ncc(-c2ccncc2)nc1NC1CCNC1` (centres unmarked) [Example 19, 6-(Pyridin-4-yl)-N^2-(pyrrolidin-3-yl)pyrazine-2,3-diamine], with 0.064 nM.
`CN1CCCN(c2nc(-c3ccncc3)cnc2N2CCOCC2)CC1` [Example 52, 4-(3-(4-Methyl-1,4-diazepan-1-yl)-5-(pyridin-4-yl)pyrazin-2-yl)morpholine trihydrochloride]: the IC50 was determined as 6.3 nM.
Turning to `CCN(CC)c1ncc(-c2ccncc2)nc1N1CCCN(C)CC1` [Example 37, N,N-Diethyl-3-(4-methyl-1,4-diazepan-1-yl)-5-(pyridin-4-yl)pyrazin-2-amine hydrochloride], the IC50 worked out at 6.7 nM.
As to `CN1CCC(Oc2nc(-c3ccncc3)cnc2N)CC1` [Example 20, 3-(1-Methylpiperidin-4-yloxy)-5-(pyridin-4-yl)pyrazin-2-amine], the IC50 was determined as 5.6 nM.
As to `CN1CCCN(c2nc(-c3cc[nH]n3)cnc2N)CC1` [Example 3, 3-(4-Methyl-1,4-diazepan-1-yl)-5-(1H-pyrazol-3-yl)pyrazin-2-amine], the IC50 was determined as 2.8 nM.
Regarding `c1cc(-c2cnc(N3CCCC3)c(N3CCCNCC3)n2)ccn1` [Example 40, 1-(6-(Pyridin-4-yl)-3-(pyrrolidin-1-yl)pyrazin-2-yl)-1,4-diazepane hydrochloride], the 50% inhibitory concentration (IC50) worked out at 0.33 nM.
Take `CN1CCCN(c2nc(-c3ccncc3)cnc2NCCO)CC1` [Example 28, 2-(3-(4-Methyl-1,4-diazepan-1-yl)-5-(pyridin-4-yl)pyrazin-2-ylamino)ethanol hydrochloride]: the 50% inhibitory concentration (IC50) stood at 3 nM.
Turning to `Nc1ncc(-c2ccncc2)nc1N1CCN(CCCO)CC1` [Example 24, 3-(4-(3-Amino-6-(pyridin-4-yl)pyrazin-2-yl)piperazin-1-yl)propan-1-ol], the IC50 came out at 1.7 nM.
For `c1cc(-c2cnc(N3CCCC3)c(NC3CCCNC3)n2)ccn1` (centres unmarked) [Example 45, N-(Piperidin-3-yl)-6-(pyridin-4-yl)-3-(pyrrolidin-1-yl)pyrazin-2-amine dihydrochloride], the IC50 is 0.25 nM.
Consider `c1cc(-c2cnc(N3CCCC3)c(OC3CCNCC3)n2)ccn1` [Example 46, 3-(Piperidin-4-yloxy)-5-(pyridin-4-yl)-2-(pyrrolidin-1-yl)pyrazine], for which the IC50 was 0.084 nM.

The record behind these values is patent US20100216777A1, “AMINOPYRAZINE ANALOGS FOR TREATING GLAUCOMA AND OTHER RHO KINASE-MEDIATED DISEASES AND CONDITIONS” (ALCON, INC., priority 2004, published 2010).
